Laboratory results published in patent publication US12077524B2, “Crystal of pyrrolidine compound” (MITSUBISHI TANABE PHARMA CORPORATION, priority 2018, dated 2024).
Structures can show the parent of a compound that is named as a salt. Where two headings read alike, the source gives them in different places. One block for each compound: values may come before it.

Legend:
Format in all cases: physicochemical
[1] = Thermal stability evaluation (TG/DTA); conditions: for Thermal stability TG: weight change: 10 K/min, nitrogen
Method: Thermal stability was evaluated by using a thermogravimetry/differential thermal analyzer TG/DTA7200 (SII NanoTechnology Inc.) under the following conditions. • Rate of temperature increase: 10 K/min • Atmosphere: nitrogen 200 mL/min <Hygroscopicity or Deliquescency Evaluation>

[2] = Hygroscopicity or deliquescency evaluation (moisture adsorption, DVS)
Method: Hygroscopicity or deliquescency was evaluated as follows by using a moisture adsorption measurement device DVS-1 or DVS-intrinsic (Surface Measurement Systems Limited). Each sample was placed into a cell of which the tare weight had been corrected in advance, and the cell was hung on the precision balance of said device to precisely measure the weight at the start of measurement. The humidity was changed in a stepwise manner, the weight change was recorded with time, and the equilibrium weight was calculated at each humidity. On the basis of the weight of anhydride converted from the amount of water at a dried condition (0% RH) or at the start of measurement observed by an alternative method, the weight change rate at each humidity was calculated.

[3] = Chemical stability evaluation (storage 1 week, related substances by HPLC, observation of sample)
Method: Each sample was stored at 60° C. under a sealed condition and at 60° C. under 75% RH for 1 week, an increase or decrease of related substances after the storage was calculated by high-performance liquid chromatographic method on the basis of the area percentage of each peak. Also, the condition of each sample after the storage was observed.

- Thermal stability TG: weight change ([1]; 30-130° C.): 2.2%
- Hygroscopicity or Deliquescency: Weight change under 90% RH [2]: 1.8%
Compound: COC[C@H]1CN(C(=O)[C@]2(F)CN(C3CCCC3)C[C@H]2c2ccc(OC)cc2)C[C@@H]1c1ccc(C(F)(F)F)cc1N1CCC(C(=O)O)CC1 [Amorphous of free form, 1-{2-[(3S,4R)-1-[(3R,4R)-1-cyclopentyl-3-fluoro-4-(4-methoxyphenyl)pyrrolidine-3-carbonyl]-4-(methoxymethyl)pyrrolidin-3-yl]-5-(trifluoromethyl)phenyl}piperidine-4-carboxylic acid]

- Thermal stability TG: weight change ([1]; 30-150° C.): 4.8%
- Deliquescency [2]: deliquescent
- Hygroscopicity or Deliquescency: Weight change under 90% RH [2]: 11.87%
- Deliquescency ([2]; listed as hydrochloride of the Pyrrolidine compound A): has deliquescency
- Hygroscopicity or Deliquescency: observation (deliquescent) ([2]; under 90% RH): deliquescent
- Chemical stability: condition of sample after the storage ([3]; 60° C., 75% RH, 1 week): deliquescent
Compound: COC[C@H]1CN(C(=O)[C@]2(F)CN(C3CCCC3)C[C@H]2c2ccc(OC)cc2)C[C@@H]1c1ccc(C(F)(F)F)cc1N1CCC(C(=O)O)CC1 [Amorphous of hydrochloride, 1-{2-[(3S,4R)-1-[(3R,4R)-1-cyclopentyl-3-fluoro-4-(4-methoxyphenyl)pyrrolidine-3-carbonyl]-4-(methoxymethyl)pyrrolidin-3-yl]-5-(trifluoromethyl)phenyl}piperidine-4-carboxylic acid]

- Chemical stability [3]: poor
Compound: COC[C@H]1CN(C(=O)[C@]2(F)CN(C3CCCC3)C[C@H]2c2ccc(OC)cc2)C[C@@H]1c1ccc(C(F)(F)F)cc1N1CCC(C(=O)O)CC1 [Crystal of free form, 1-{2-[(3S,4R)-1-[(3R,4R)-1-cyclopentyl-3-fluoro-4-(4-methoxyphenyl)pyrrolidine-3-carbonyl]-4-(methoxymethyl)pyrrolidin-3-yl]-5-(trifluoromethyl)phenyl}piperidine-4-carboxylic acid]

- Thermal stability TG: weight change ([1]; 30-230° C.): No change
- Weight change on heating ([1]; even at 200° C. or more): did not show a weight change
- Deliquescency ([2]; listed as Phosphoric acid Form B crystal): not deliquescent
Compound: COC[C@H]1CN(C(=O)[C@]2(F)CN(C3CCCC3)C[C@H]2c2ccc(OC)cc2)C[C@@H]1c1ccc(C(F)(F)F)cc1N1CCC(C(=O)O)CC1 [Present crystal, 1-{2-[(3S,4R)-1-[(3R,4R)-1-cyclopentyl-3-fluoro-4-(4-methoxyphenyl)pyrrolidine-3-carbonyl]-4-(methoxymethyl)pyrrolidin-3-yl]-5-(trifluoromethyl)phenyl}piperidine-4-carboxylic acid]
